Source: patent publication US20080248993A1, “Modified Beta Thymosin Peptides” (REGENERX BIOPHARMACEUTICALS, INC., priority 2005, published 2008)
Read-outs that look alike come from different tables or passages of the source.

Biological target: G-actin
Test: G-actin binding affinity (ultrafiltration of free and bound peptide, HPLC of the ultrafiltrate)
Description: Tests were conducted to determine the G-actin binding affinity of Tβ4^leu as compared to native Tβ4. The experiments were repeated twice and in triplicate, with the results shown below (averages from 3 experiments):
The lower values in the case of Tβ4 are caused by its sulfoxide. Tβ4 plus Tβ4-sulfoxide was determined by amino acid analysis. […] Thus the real concentration of Tβ4 in the tests are lower and the decrease of free Tβ4 is higher when compared to non-oxidized Tβ4. The decrease of free beta-thymosin was measured. G-actin bound Tβ4 and free Tβ4 were separated by ultrafiltration and the concentration of Tβ4 in the ultrafiltrate was measured by HPLC. The procedure utilized is described in Huff et al., FEPS Letters, 414:39-44 (1997).

[1] = First determination, averages from 3 experiments, read-out: Kd, G-actin binding
[2] = Second determination, averages from 3 experiments, read-out: Kd, G-actin binding

## Tβ4: Native 43 amino acid, 4.9 kDa polypeptide with methionine at position 6; comparator
Example 8, comparison of Tβ4-sulfone with Tβ4 and Tβ4-sulfoxide, read-out: Kd value of the complex with G-actin
  Kd: 1000 nM
[1]
  Kd: 1280 nM
[2]
  Kd: 540 nM

## Tβ4^leu: Thymosin β4 with leucine substituted for methionine at position 6 (SDKPDLAEIEKFDKSKLKKTETQEKNPLPSKETIEQEKQAGES; not fully specified; Thymosin beta-4; UniProt P62328 2-44, looked up, variant M6L)
[1]
  Kd: 1360 nM
[2]
  Kd: 990 nM
Qualitative statement
  G-actin binding, in words: substantial actin-binding activity
